Measurements from publication PMC4707675 (ACS infectious diseases, 2015).
Where two headings read alike, the source gives them in different places.

How the values were obtained:
[1] = tested on: DHFR-overexpressing strain of Mtb (DHFR-oe); format: cell-based, Mycobacterium tuberculosis
[2] = tested on: DHFR-overexpressing strain of Mtb (DHFR-oe); conditions: ref Nixon et al.[15]; cited from earlier work

Row | Compound | MIC90 DHFR-oe [1] [µM] | MIC90 DHFR-oe [2] [µM]
1 | CC1(C)N=C(N)N=C(N)N1OCCCOc1cc(Cl)c(Cl)cc1Cl [WR99210] | 15 to 30 | –
2 | COc1cc(NCc2ccc3nc(N)nc(N)c3c2C)cc(OC)c1OC [Trimetrexate] | – | >100
3 | N#Cc1ccc(Cn2ccc3c4c(N)nc(N)nc4ccc32)cc1 [PQD-1] | >2 | –
